# Assay results published in patent US20210137941A1 (ZARODEX THERAPEUTICS LIMITED, priority 2018, published 2021).
# Several values for one entry are separate records, joined by “and”; a condition that tells them apart may be missing. Equal entries are not always repeated. Where two headings read alike, the source gives them in different places.
# Tests used:
# [1] = tested on: Immunoglobulin levels (IgG, IgA and IgM); test: First observational study: serum immunoglobulin levels by nephelometry, clozapine vs clozapine-naive patients; assay type: in vivo, human; details: sub-group D: smokers only, secondary causes excluded; n=57
# [2] = tested on: B cell subsets (class switched memory B cells, plasmablasts); details: for CSMB after stopping clozapine: one patient, 24 months after clozapine cessation (from 1.58%)
# [3] = treatment-resistant schizophrenia; cited from earlier work
# [4] = tested on: specific antibody titres against Haemophilus influenzae, Tetanus and Pneumococcal capsular polysaccharide; design: species or system human; details: in vivo
# [5] = tested on: bone marrow B cell subsets; test: Wild type mouse study: bone marrow B cell immunophenotyping by flow cytometry; assay type: in vivo, C57BL/6 mice
# [6] = tested on: T follicular helper cells (CD4+ PD1+ CXCR5+); test: CIA model: T follicular helper cells in spleen and lymph node by FACS; assay type: in vivo, DBA/1 mice
# Description: (§1) All experiments were approved by the Clinical Medicine Animal Welfare and Ethical Review Body (AWERB) and by the UK Home Office.
# (§2) At the end of the experimental period, mice were humanely euthanised and bled by cardiac puncture to obtain blood samples for serum separation, storage at −80° C. and subsequent measurement of specific anti-collagen immunoglobulin (IgG1 and IgG2a isotypes) by ELISA. In parallel, spleen and inguinal lymph nodes were harvested for evaluation of cellular composition across these compartments using multi-laser flow cytometric detection and analysis. Numbers of B cell subsets in spleen and lymph nodes were determined by FACS.
# (§3) Data were analyzed by one-way ANOVA with Tukey's or Dunnett's multiple comparison test or two-way ANOVA with Tukey's multiple comparison test as appropriate. All calculations were made using GraphPad Prism software. A P value less than 0.05 was considered significant.
# [7] = tested on: circulating B cell subsets; test: Second observational study (interim analysis): peripheral blood B cell subsets by FACS; assay type: in vivo, human; details: interim data
# [8] = tested on: serum/plasma IgG, IgA, IgM; details: cited from earlier work
# [9] = tested on: B220+ B cells, plasma cells, germinal centre B cells; test: CIA model: B cell subsets in spleen and lymph nodes by FACS; assay type: in vivo, DBA/1 mice
# Description: as §1, §2, §3
# [10] = tested on: circulating immunoglobulins; test: Wild type mouse study: circulating immunoglobulin profile by ELISA; assay type: in vivo, C57BL/6 mice; details: FIG. 24
# [11] = tested on: circulating total IgG, IgA, IgM and pneumococcus IgG; test: Second observational study (interim analysis): circulating immunoglobulins; assay type: in vivo, human; details: interim data
# [12] = outpatients on clozapine at least five years (Lozano et al., 2016)
# [13] = six weeks clozapine treatment (Hinze-Selch et al., 1998)
smiles,measurement,setting,value
"CN1CCN(C2=Nc3cc(Cl)ccc3Nc3ccccc32)CC1 [Clozapine, clozapine]",% of patients with Serum IgA <0.6 g/L,[1],3.5%
same,% of patients with Serum IgA <0.7 g/L,[1],3.5%
same,% of patients with Serum IgA <0.8 g/L (below reference range),[1],10.5%
same,% of patients with Serum IgG <3 g/L (Reference range 6-16 g/L),[1],1.8%
same,% of patients with Serum IgG <4 g/L,[1],1.8%
same,% of patients with Serum IgG <5 g/L,[1],1.8%
same,% of patients with Serum IgG <6 g/L (below reference range),[1],8.8%
same,% of patients with Serum IgM <0.2 g/L (Reference range 0.5-1.9 g/L),[1],1.78%
same,% of patients with Serum IgM <0.4 g/L,[1],26.3%
same,% of patients with Serum IgM <0.5 g/L (below reference range),[1],33.3%
same,marginal zone B cell numbers vs healthy control,[2]; FIG. 3B,no significant difference
same,total B cell numbers vs CVID and healthy controls,[2]; FIG. 3B,similar
same,"CSMB (6.5-29.1%), individual referred patients","[2]; class switched memory B cells as % of CD19+ cells, one line per patient, listed as clozapine",1.58%
same,overall lymphopenia / B cell lymphopenia,"[2]; human, in vivo",no severe overall lymphopenia or B cell lymphopenia
same,CSMB after stopping clozapine,[2],CSMB rose to 2.77%
same,CSMB after stopping clozapine,[2]; listed as clozapine,2.77%
same,"mean percentage of CSMB, referred patients","[2]; reference range 6.5-29.1%, p<0.0001 vs healthy controls, FIG. 3A",1.87%
same,previously treatment refractive patients in whom effective,[3],approximately 60%
same,% of patients with IgG-Haemophilus B <1.0 mcg/ml (below protective level),[4],51% and 51.2% and 51.1% and 49.4% and 50.9%
same,% of patients with IgG-Pneumococcus <35 mg/L,[4],39.0% and 38.3% and 37.9% and 45.6%
same,% of patients with IgG-Pneumococcus <50 mg/L (below protective level),[4],52.1% and 50.6% and 54.4%
same,% of patients with IgG-Tetanus <0.1 IU/ml (below protective level),[4],10.6% and 11.5% and 12.3%
same,IgM-Pneumococcus,[4],58.5 U/L and 59.8 U/L and 60.4 U/L and 61.6 U/L
same,Pneumococcal IgA level,[4],31 U/ml
same,Pneumococcal IgM level,[4],58.5 U/ml
same,pneumococcal IgA level,[4],31.0 U/L
same,pro-B cell fraction in bone marrow,"[5]; 10 mg/kg IP, 21 days, FIG. 18",without any change
same,proportion of pre-pro B cells in bone marrow,"[5]; 10 mg/kg IP, 21 days, FIG. 18",significant increase
same,reduction in the percentage of long-lived plasma cells in the bone marrow compared to control,"[5]; 5 and 10 mg/kg IP, 21 days, significant, FIG. 20",~30%
same,percentage of immature B cells in bone marrow,"[5]; IP 21 days, FIG. 19",reduction
same,overall B cells in the bone marrow,"[5]; any dose (2.5, 5, 10 mg/kg IP, 21 days), FIG. 18",No overall reduction
same,pre-B cells in bone marrow,"[5]; dose-dependent, significant vs control from 2.5 mg/kg, IP 21 days, FIG. 19",reduction
same,percentage of proliferating pre-B cells in bone marrow,"[5]; reaching significance for the 5 mg/kg dose, FIG. 19",diminished
same,proportions of CD4+PD1+CXCR5+ T follicular helper cells in lymph node or spleen,"[6]; 5 or 10 mg/kg from day 1 or day 15, FIG. 34",did not significantly affect
same,expression of PD-1 (MFI) in lymph node T follicular helper cells,"[6]; all doses and time points, FIG. 35",Reduced expression
same,CXCR5 expression (MFI) on T follicular helper cells,"[6]; dosed from day 1, lymph node and spleen, FIG. 36",significant reductions
same,expression of CCR7 on germinal centre resident T follicular helper cells,"[6]; lymph node and spleen, FIG. 37",reduction in expression
same,overall CD19+ B cell numbers vs control,[7]; FIG. 8A-B,not significantly different
same,naive (CD19+CD27-) B cells as a proportion of total CD19+ B cells,[7]; FIG. 9A-C,Small increase
same,overall memory B cell pool,[7]; FIG. 10A-C,without perturbation
same,IgM hi IgD lo memory B cell subpopulation,[7]; FIG. 12A-C,without perturbation
same,circulating levels of marginal zone B cells,[7]; FIG. 14A-C,No significant difference
same,class-switched memory B cells (CD27+ IgM- IgD- as % B),"[7]; P=0.06 vs control, FIG. 11A-C",Strong trends to a specific reduction
same,levels of plasmablasts,"[7]; P=0.07 vs control clozapine naive, FIG. 15A-C",Strong trends to reduction
same,"IgA, IgG, absolute neutrophil count and white blood cell count vs control group",[8]; [12],no differences were found
same,mean plasma levels of IgM vs control group,[8]; [12],overall decrease
same,IgA or IgM concentrations,[8]; [13],no significant effect
same,serum concentrations of IgG,[8]; [13],significant increases
same,proportion of B220+ B cells in spleen,"[9]; 10 mg/kg from day 1, FIG. 29",significantly reduced
same,proportion of plasma cells in spleen,"[9]; 10 mg/kg given on day 1, FIG. 30",significant reduction
same,plasma cell numbers in lymph node,[9]; FIG. 30,no significant effect
same,level of GL7 expression on follicular B cells in lymph node,"[9]; all clozapine treatment groups vs vehicle, FIG. 32",significantly decreased
same,percentage of B220+ B cells in lymph nodes,"[9]; all doses and time points (5 or 10 mg/kg from day 1 or day 15), FIG. 29",significantly lower percentage
same,lymph node follicular B cells (B220+IgD-Fas+GL7hi),"[9]; all doses/both time points, FIG. 31",Strikingly significant reductions
same,other circulating immunoglobulin isotype classes,[10],No other isotype classes were affected
same,circulating IgA levels compared to control,"[10]; clozapine 5 and 10 mg/kg, haloperidol 1 mg/kg, IP 21 days",reduction
same,"levels of circulating total IgG, IgA and IgM vs clozapine naive control",[11]; FIG. 6A-C,Significantly reduced levels
same,IgG antibodies against pneumococcus vs control,[11]; FIG. 7,trend to lower
